A word on the IC50: it is the concentration that inhibits the measured activity by half.

In assay [1] the target is T1, 5α-reductase (Homo sapiens, UniProt P31213).
T1 construct: particulate fraction from homogenates of hyperplastic human prostates; from tissue; host or cells: hyperplastic human prostate, particulate fraction (140,000×g pellet)
T1 sequence (P31213 1-254): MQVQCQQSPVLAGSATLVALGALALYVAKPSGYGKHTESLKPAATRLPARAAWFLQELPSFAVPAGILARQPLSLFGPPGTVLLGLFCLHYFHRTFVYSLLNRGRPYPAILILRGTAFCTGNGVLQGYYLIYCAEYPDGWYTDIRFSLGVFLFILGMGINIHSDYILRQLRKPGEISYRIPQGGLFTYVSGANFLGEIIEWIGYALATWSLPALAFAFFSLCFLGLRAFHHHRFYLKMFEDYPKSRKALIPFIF
As to the kind of experiment: In vitro assay of 5α-reductase inhibition (particulate fraction from homogenates of hyperplastic human prostates, [14C] testosterone). The format is biochemical. The following applies: human prostate particulate fraction, pH 5.5, 1 μM [14C] testosterone, 30 min, 37° C.
Protocol: Inhibition of 5α-reductase was evaluated using the particulate fraction from homogenates of hyperplastic human prostates as the enzyme source. The particulate fraction was prepared centrifuging prostate homogenate at 140,000×g. The resulting pellet, washed several times, was resuspended in buffer and stored at -80° C. in aliquots containing ≈10 mg protein/mi.
The assay for 5α-reductase was done in a final volume of 0.5 ml, in 40 mM TRIS-HCl buffer pH 5.5, containing 1 mM dithiothreitol, 5 mM NADPH, 1 μM [^14 C] testosterone, an aliquot of the enzyme preparation and various of the inhibitors. After 30 min incubation at 37° C. the reaction was terminated by addition of 2 ml cold diethyl ether and the organic phase was separated, evaporated under N2 and resuspended in ethyl acetate. Testosterone metabolites in this extract were separated in TLC on silica gel F 254 plates (Merck), using chloroform, acetone and n-hexane (2:1:2) as developing solvent system.
Radioactivity on the plate was scanned and analyzed from quantitative plots printed by a TLC-analyzer (Berthold). The fractional 5α-reduction of testosterone was calculated by relating the ^14 C-radioactivity in the 5α-reduced metabolites (5α-dihydrotestosterone, 3α- and 3β-androstanediols) regions to the total radioactivity in the testosterone and 5α-reduced metabolites regions. […]

In assay [2] the test system is 5α-reductase. As to the kind of experiment: In vivo inhibition of 5α-reductase (antiandrogenic effect, ventral prostate weight in castrated, testosterone-implanted rats). The following applies: rat, once daily for 7 consecutive days. The procedure:
The standard test for the antiandrogenic effect in rats was used. Prepuberal 22-day-old male rats were castrated via scrotal incision under light ether anaesthesia. […] Control animals (testosterone controls) received the vehicle (0.5 ml/kg of 0.5% Methocel/0.4% Tween 80). One group of castrated rats was not implanted with testosterone (castrated controls).
The mean percentage of inhibition of the T-induced hypertrophic response of the prostate was calculated according to the following formula: […]

SMILES strings stand for the structures.

In the case of `C[C@]12C=CC(=O)N[C@@H]1CC[C@@H]1[C@@H]2CC[C@]2(C)[C@@H](C(=O)NC(c3ccccc3)C(F)(F)F)CC[C@@H]12` (stereo partly drawn) [Compound 40, N-(2,2,2-trifluorophenylethyl) 3-oxo-4-aza-5α-androst-1-ene-17β-carboxamide], in assay [1], 21 nM corresponded to half-maximal inhibition (IC50). For the same compound, the “% INHIBITION OF PROSTATE WEIGHT AT 3 mg/kg/day p.o.” value in assay [2] amounted to 51%.

Values taken from patent US5407939A, “Fluorinated 17 β-substituted 4-aza-5 α-androstan-3-one derivatives” (Farmitalia Carlo Erba S.R.L., priority 1992, dated 1995).
